{"source": "PubChem BioAssay AID743394", "about": "(Broad Institute, 2014)", "note": "Calls of active or inactive are those of the source.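 The calls were made as follows: active = 40% activation versus positive control reached by fitted dose-response curve at or below highest valid tested dose; inconclusive = poor fit quality, or flat fit with activation between 30% and 70%; inactive = the rest.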"}
{"assay": "Xi-linked GFP reactivating small molecules – imaging, 68-5-11 mouse fibroblasts, cherry-pick, dose response (AID 743394);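 also: sensitizer 5-aza-dC present in the wells at 0.5 mM final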", "details": "68-5-11 mouse fibroblast XiGFP reporter, % GFP-positive imaging, 3 d; at 19.5 µM (top of the series); cells co-treated with 5-aza-dC sensitizer; scaled: neutral wells 0, ellipticine wells 100"}
{"smiles": "CC(=O)Nc1sc(C)c(C)c1C(=O)OCC(=O)Nc1cc(S(C)(=O)=O)ccc1Cl", "activation": "0.641% (inactive)"}
{"smiles": "Cc1nnc(-c2ccc(N3CCCCCC3)c([N+](=O)[O-])c2)o1", "activation": "-0.007% (inactive)"}
{"smiles": "COc1cccc(CNC(=O)CNC(=S)N(Cc2ccccc2)Cc2ccccc2F)c1", "activation": "-0.015% (inactive)"}
{"smiles": "CCOC(=O)C1CCN(c2c(NCc3ccc(C(=O)NC4CCCC4)cc3)c(=O)c2=O)CC1", "activation": "-0.034% (inactive)"}
{"smiles": "Nc1ccccc1Nc1cc(-c2ccccc2)[nH]n1", "activation": "-0.047% (inactive)"}
{"smiles": "CC=Cc1ccc2n(c1=O)C[C@@H]1[C@@H](CO)[C@H](C(=O)NCCCN(C)C)[C@H]2N1C(=O)c1ccccc1F", "note": "(mixture of isomers)", "activation": "-0.01% (inactive)"}
{"smiles": "S=C(SSC(=S)N1CCOCC1)N1CCOCC1", "activation": "-0.127% (inactive)"}
{"smiles": "O=C(CCN1CCCCC1)NCC[C@@H]1CC[C@H](NC(=O)C2CCCCC2)[C@H](CO)O1", "activation": "0.052% (inactive)"}
{"smiles": "CCN1CCN(c2cc(C)c3cc(NC(=O)c4cccs4)ccc3n2)CC1", "activation": "-0.032% (inactive)"}
{"smiles": "Cc1ccc(Cn2ccsc2=NC(=O)CCl)cc1", "activation": "-0.035% (inactive)"}
{"smiles": "Cc1ccc(NCc2nnc(SCC(=O)NNC(=O)Cc3ccccc3)n2C)cc1", "activation": "0.012% (inactive)"}
{"smiles": "Cc1cc(NC(=O)CSc2nnc(-c3c[nH]c4ccccc34)n2-c2ccc(F)cc2)no1", "activation": "0.139% (inactive)"}
{"smiles": "CCOC(=O)[C@]12CCC=C1N(Cc1ccccc1)C(=O)[C@H](CC(=O)N1CCSCC1)C2", "activation": "-0.008% (inactive)"}
{"smiles": "CN(Cc1nccn1C)C(=O)CC1C(=O)NCCN1CC(c1ccccc1)c1ccccc1", "note": "(stereo unspecified)", "activation": "0.001% (inactive)"}
{"smiles": "COc1cc(C(=O)NC(=S)Nc2cccc3nc(C)ccc23)cc(OC)c1OC", "activation": "1% (inactive)"}
{"smiles": "CCc1nc(C)cn1S(=O)(=O)c1ccc([N+](=O)[O-])cc1", "activation": "-0.053% (inactive)"}
{"smiles": "CCCNNC(=O)C(O)(c1ccccc1)c1ccccc1", "activation": "-0.099% (inactive)"}
{"smiles": "COc1cc(/C=C(\\C#N)c2nc3ccccc3o2)ccc1O", "activation": "1.85% (inactive)"}
{"smiles": "O=C(OCc1cccc(F)c1)c1ccc2c(=O)n3c(nc2c1)CCC3", "activation": "1.02% (inactive)"}
{"smiles": "CN(C)CCCNC(=O)/C(=C\\c1ccc(-c2ccc(Br)cc2)o1)NC(=O)c1ccccc1", "activation": "-0.053% (inactive)"}
{"smiles": "COc1ccc(CCn2c(C)cc(C(=O)CN3C(=O)C(=O)N(Cc4ccco4)C3=O)c2C)cc1", "activation": "0.899% (inactive)"}
{"smiles": "COc1ccccc1C#Cc1ccc2c(c1)O[C@H](CN(C)Cc1cncnc1)[C@@H](C)CN([C@H](C)CO)S2(=O)=O", "activation": "0.045% (inactive)"}
{"smiles": "N#Cc1ccccc1Cn1cc(/C=N/Nc2ccc([N+](=O)[O-])cn2)c2ccccc21", "activation": "10.9% (inactive)"}
{"smiles": "NS(=O)(=O)c1cccc(-n2cnnn2)c1", "activation": "0.065% (inactive)"}
{"smiles": "CC[N+]1=C(C)C(C)(C)c2cc(C)ccc21", "activation": "-0.032% (inactive)"}
{"smiles": "Cn1c(=N)n(CC(=O)c2ccccc2)c2ccccc21", "activation": "0.105% (inactive)"}
{"smiles": "O=C(O)CSc1ncccn1", "activation": "-0.015% (inactive)"}
{"smiles": "CCOC(=O)Nc1cc2c(c(N)n1)N=C(c1ccccc1)CN2", "activation": "-0.053% (inactive)"}
{"smiles": "COc1cccc(C(=O)c2c(-c3ccccc3)ncc3cc(OC)c(OC)cc23)c1", "activation": "0.006% (inactive)"}
{"smiles": "COc1ccc(S(=O)(=O)Nc2cccc3c2O[C@H](CN(C)S(=O)(=O)c2cn(C)cn2)[C@H](C)CN([C@H](C)CO)C3=O)cc1", "activation": "-0.035% (inactive)"}
{"smiles": "CCN(CC)c1ccc(/C=C(/C#N)C(=O)NCc2ccccc2)o1", "activation": "12.4% (inactive)"}
{"smiles": "N/C(=N\\OC(=O)C12CC3CC(CC(C3)C1)C2)c1ccncc1", "activation": "0.008% (inactive)"}
{"smiles": "CCCCCCCCN1C(=O)[C@H](CC(=O)N2CCSCC2)C[C@@]2(C(=O)OCC)CCCC=C12", "activation": "0.117% (inactive)"}
{"smiles": "CN1OC[C@@H]2CN(Cc3ccccc3)[C@H](c3cccc(N4CCOCC4)c3)C[C@@H]21", "activation": "0.022% (inactive)"}
{"smiles": "CC(=O)Nc1ccc(NS(=O)(=O)c2ccc3c(c2)oc(=O)n3C)cc1", "activation": "5.23% (inactive)"}
{"smiles": "COC(=O)c1c(NC(=O)c2ccccc2)sc2c1CC(C)(C)NC2(C)C", "activation": "0.021% (inactive)"}
